Measured values as given in ChEMBL document CHEMBL3507680, “University of Dundee, Gates Library screen for HepG2 cell viability”.

Test: Human HepG2 cell viability assay in 384 well format
Assay type: toxicity, cell-based
Set-up: dose 125 nL, time 70.5 hour; concentration not given beside the values
Settings: HepG2 cells, read-out: Inhibition

Row | SMILES | cytotoxicity at 70.5 h [%]
1 | CCCOCC(=O)N1CCC2(CC1)c1nc[nH]c1CCN2S(C)(=O)=O | -5.48
2 | O=C(CN1CCN(c2ncnc3c2CCNCC3)CC1)N1CCCCC1 | -5.29
3 | Cc1cc(-c2ccc(C(C)N3CCOCC3)cc2)cnc1N (stereo not drawn) | -4.56
4 | CCc1n[nH]c(SCC(=O)N2CCc3[nH]nc(C4CCC4)c3C2)n1 | -0.161
5 | COc1ccc(CCC2CCCN(C(=O)CCc3cc(O)no3)C2)cc1 (stereo not drawn) | -4.3
6 | CC(=O)N[C@@H]1Cc2ccccc2[C@H]1Nc1cc(C2CC2)ncn1 | 7.02
7 | CCNc1ncc(C(=O)N2CCc3c(nc(C)nc3N(C)C)C2)cn1 | 25.4
8 | CS(=O)(=O)NCc1cc2n(n1)CCCN(Cc1ccc(Cl)s1)C2 | -9.1
9 | CN(Cc1ccc(-n2cccn2)cc1)Cc1ncc[nH]1 | -9.75
10 | CC(C)CCn1cc(C(C(=O)O)N2CCSCC2)cn1 (stereo not drawn) | -12.4
11 | COc1cccc(OCC2CCCN(C(=O)CCc3cc(O)no3)C2)c1 (stereo not drawn) | -21.1
12 | CC(C)c1cc(NCC2(N3CCOCC3)CCCCC2)ncn1 | 45.2
13 | CC(C)(C)c1cc(=O)[nH]c(-c2ccccc2CN2CCC[C@@H](O)C2)n1 | -2.12
14 | COCCc1noc(-c2cn(Cc3ccc(OC)cc3)nn2)n1 | 7.6
15 | CCCc1cc(C(=O)N2Cc3ccccc3C2)[nH]n1 | 6.06
16 | O=C1CC(C(=O)O)C2(CCN(C(=O)Nc3ccccc3Cl)CC2)N1 (stereo not drawn) | -2.72
17 | O=C(Cn1ccc2ncccc2c1=O)N1CCSCC1 | 29.2
18 | CN(C)CC1(O)CCCN(C(=O)CCc2nc3cccnc3n2C)C1 (stereo not drawn) | -9.56
19 | c1cncc(NCCNC2CCCNC2)c1 (stereo not drawn) | 2.18
20 | COCCn1cnnc1CCn1ccnc1-c1ccccc1Cl | 5.9
21 | O=C1NCCc2c1sc1ccc(C(=O)N3CC[C@H](CO)[C@H](O)C3)cc21 | -2.24
22 | CN1CCC(N(CCc2ccccc2)C(=O)c2ccoc2)CC1 | -7.47
23 | COc1cccc(C(=O)N2CCN(C(=O)CCCc3cn[nH]c3)CC2)c1 | -2.77
24 | Cc1nc(O)cc(CN2CC=C(c3cnn(C(C)(C)C)c3)CC2)n1 | -10.5
25 | CCC(C)N(Cc1cccnc1)Cc1cc2c(cc1OC)OCO2 (stereo not drawn) | 0.778
26 | O=C(c1cccc(S(=O)(=O)NC[C@@H]2C[C@H](F)CN2)c1)N1CCCCC1 | 4.39

Row | SMILES | cytotoxicity at 70.5 h [%]
27 | O=C(c1ccc2c(c1)CCC2)N1CCN(c2ccc(Cl)cn2)CC1 | 6.01
28 | Cc1nn(CCO)c(C)c1CN1CCN(C2CCCCC2)C(=O)C1 | 0.129
29 | OC[C@@H]1CCCN1c1ccc(-c2nc(COc3ccccc3)no2)cn1 | 1.55
30 | CCC(C)N(Cc1ccsc1)C(=O)c1ccc2[nH]nnc2c1 (stereo not drawn) | 24.9
31 | O=C(c1ccncc1F)N1CCCC(c2nccn2CC2CCC2)C1 (stereo not drawn) | -21.7
32 | CC(C)c1noc(-c2ccc(NCCCN3CCCC(O)C3)nc2)n1 (stereo not drawn) | -6.37
33 | O=C(NCCn1ccnc1-c1cc2n(n1)CCNC2)c1ccncc1 | -5.81
34 | O=C(c1cn2cc(Cl)ccc2n1)N1CCC(CCn2cccn2)CC1 | 19.9
35 | CN(C)C(C(=O)N1CCN(CC(F)(F)F)CC1)c1ccccc1F (stereo not drawn) | -1.96
36 | Cc1cc(C)n(-c2ccc(C(=O)NCC(CO)Cc3cccs3)cc2)n1 (stereo not drawn) | -8
37 | Cc1cc(C(=O)N2CCc3ncnc(N4CCSCC4)c3CC2)[nH]n1 | -5.82
38 | COc1nc2ccccc2cc1C1CC(=O)Nc2n[nH]c(C3CCC3)c21 (stereo not drawn) | 4.02
39 | CNCCN1C(=O)CC[C@H]2CN(c3cnc4ccccc4n3)CC[C@H]21 | -2.89
40 | Cc1ccc2nc(C)c(C)c(C(=O)N[C@H]3COC[C@@H]3N3CCCC3)c2c1 | -3.96
41 | COc1ncccc1C(=O)N1CCC(c2nc3c(C)cccc3[nH]2)CC1 | -6.55
42 | CCN(CCn1cccn1)Cc1nc(-c2ccoc2)oc1C | 14
43 | Cc1cc(C2CCCN2Cc2cccc(C(=O)Nc3nccs3)c2)no1 (stereo not drawn) | -14.5
44 | Cc1nc(CN2CC[C@@H]3[C@@H](CCC(=O)N3CCc3c[nH]cn3)C2)co1 | 13
45 | Nc1nc(O)cc(N2CCC(c3cc(Cc4ccccc4)n[nH]3)CC2)n1 | -3.99
46 | CC(=O)Nc1ccc(CN2CCc3[nH]cnc3C2c2nccn2C)cc1 (stereo not drawn) | -3.14
47 | CCn1ncc(CNC(=O)c2cn(CCC3CCCCN3)nn2)c1C (stereo not drawn) | -6.28
48 | CCCc1cc(CNC(=O)Cc2cc(C)no2)on1 | 1.19
49 | CCc1noc(CN(CC)Cc2cc3cc(C)ccc3[nH]c2=O)n1 | -10.7
50 | CN1CCN(c2cnn(CCn3cccn3)c(=O)c2)CC1 | -3.04
51 | Cc1ccccc1C(C(=O)NCCN1CCC(CO)CC1)N(C)C (stereo not drawn) | -3
52 | Cc1nccc(-c2cccc(-c3ccn(CC4CCNC4)n3)c2)n1 (stereo not drawn) | -3.45

Row | SMILES | cytotoxicity at 70.5 h [%]
53 | COc1ccc(-c2cn(CCn3c(C)cc(C)nc3=O)nn2)cn1 | -9.73
54 | CCc1ccccc1CN1CCN(Cc2ncc[nH]2)[C@H]2CS(=O)(=O)C[C@H]21 | -3.46
55 | Cc1cc(NC(C)Cc2cccs2)n2nccc2n1 (stereo not drawn) | -14.7
56 | Cc1ccc(C(=O)N2C[C@H](NS(C)(=O)=O)[C@@H](C(C)C)C2)cc1F | 2.48
57 | Cc1cc(Cl)ccc1C(=O)C1CCCN(Cc2cnc(N(C)C)s2)C1 (stereo not drawn) | -5.77
58 | Cc1nn(C)c(Oc2ccc(Cl)cc2)c1CN1CC[C@H](CO)[C@@H](O)C1 | -12.9
59 | CC(C)=CCN1CCN(CCCc2ccccc2)[C@H]2CS(=O)(=O)C[C@H]21 | -6.15
60 | COCCN1CC(Nc2nc(C3CCCC3)nc3c2cnn3C)CC1=O (stereo not drawn) | 18.4
61 | O=C(c1cc(Cn2ccc3ccccc32)[nH]n1)N1CCOCC1 | -0.75
62 | Cc1nc(CN(C)c2nccc(C(F)(F)F)n2)cs1 | -7.33
63 | Nc1ncccc1CN1C[C@@H]2CC[C@H](C1)N(CC1CC1)C2=O | 28
64 | CCC(=O)N1CCc2[nH]cnc2C12CCN(C1CCOCC1)CC2 | -4.44
65 | O=C(NCc1c[nH]c(=O)[nH]c1=O)C1CCOc2ccccc2C1 (stereo not drawn) | 8.26
66 | CCn1nc(C)c(CCNC(=O)C2CCCN(C(=O)COC)C2)c1C (stereo not drawn) | 18
67 | CC(C)C1CN(S(=O)(=O)C2CC2)CCCN1Cc1ccc(F)cc1 (stereo not drawn) | -3.51
68 | COC(=O)c1ccn(CC(=O)Nc2nn(CC3CC3)c3ccccc23)n1 | -0.998
69 | CN1CSC[C@H]1C(=O)N1CCN(Cc2cccc(Cl)c2)CC1 | -5.08
70 | COCC1CCN(C(=O)c2cc(-c3ccco3)nc3c(Cl)cccc23)C1 (stereo not drawn) | -20.7
71 | Cc1ccc(C2(O)CCN(C(=O)CCn3ccc(=O)[nH]c3=O)CC2)nc1 | -10.1
72 | COc1cc(C)ccc1OCc1nc(C(=O)N2CCCC2)co1 | 0.58
73 | CCN(CC)C(=O)Cn1cc(-c2nc(-c3ccccc3C)no2)nn1 | -9.94
74 | CCOCCNC(=O)c1cccc(S(=O)(=O)NC[C@@H]2C[C@H](F)CN2)c1 | 31.3
75 | COCc1cc(CN(C)C(C(=O)O)c2cc(C)c(OC)c(C)c2)n[nH]1 (stereo not drawn) | -2.3
76 | Cc1cnc(-n2cnnc2)c(-c2cccc3c2CCNC3)c1 | -7.78
77 | CN(Cc1ccccc1)S(=O)(=O)N1C[C@H](C2CC2)[C@@H](N)C1 | -1.23
78 | O=C(c1c[nH]c(=O)[nH]c1=O)N1CCCC(c2nccn2CC2CCC2)C1 (stereo not drawn) | -24.3
